Laboratory results as given in patent US20120208781A1, “AMINOGLYCOSIDE DOSING REGIMENS” (Achaogen, Inc., priority 2009, published 2012).
Where two headings read alike, the source gives them in different places. Each block holds one molecule with its values, some of them ahead of it.

Legend:
rat kidney [1] = assay: Rat nephrotoxicity model: serum markers of GFR (BUN, serum creatinine); format: in vivo, Sprague-Dawley rats; conditions: dose-response for BUN elevation
rat kidney [2] = assay: Rat nephrotoxicity model: kidney histopathology (H&E); format: in vivo, Sprague-Dawley rats; conditions: rats, 14 d once-daily
Method: This rat nephrotoxicity study design used 14 days of once-daily dosing of aminoglycosides in adult Sprague-Dawley rats. Rats were allowed full access to food and water, and aminoglycosides were dosed subcutaneously at 1 mL/kg dosing volume, formulated in water. Nephrotoxicity was assessed by monitoring changes in serum markers of glomerular filtration rate (GFR), namely blood urea nitrogen (BUN) and serum creatinine. Microscopic examination of kidney slices after fixation and hematoxylin and eosin (H&E) staining was also utilized, scoring for tubular dilation, cellular casts, interstitial inflammation, and regenerative changes to the tubules.

[3] = rat, in vivo
Method: The AGs were administered to the rats according to the dose levels depicted in Table 6. The animals of Groups 11-13 were housed until day 15 even though their dosing ended on day 5, such that all animals were necropsied on the same day. Blood was collected in EDTA at days 0, 6, 11, and 15. 750 uL blood samples were collected and aliquoted into a lithium heparin tube and an EDTA tube. Clinical chemistry analysis was performed using the Idexx VETTEST 8008 system. Kidney samples were embedded in paraffin, sectioned, stained with hematoxylin and eosin and examined microscopically.

SMILES: NC[C@@H]1O[C@H](O[C@H]2[C@@H](O)[C@H](O[C@@H]3[C@@H](O)[C@H](N)C[C@H](N)[C@H]3O[C@H]3O[C@H](CO)[C@@H](O)[C@H](O)[C@H]3N)O[C@@H]2CO)[C@H](N)[C@@H](O)[C@@H]1O [Paromomycin, paromomycin]
- apparent relative nephrotoxicity (ranking) (rat kidney [1]): Neomycin≈Gentamicin>Tobramycin>Apramycin≈Paromomycin>Amikacin
- Histopathology score (0 to 5 Scale): Casts (rat kidney [2]; 30 mg/kg): 0 +/− 0
- Histopathology score (0 to 5 Scale): Dilation (rat kidney [2]; 30 mg/kg): 1 +/− 1
- Histopathology score (0 to 5 Scale): Inflammation (rat kidney [2]; 30 mg/kg): 1.4 +/− 0.9
- Histopathology score (0 to 5 Scale): Regeneration (rat kidney [2]; 30 mg/kg): 1.4 +/− 0.5
- Histopathology score (0 to 5 Scale): Casts (rat kidney [2]; 100 mg/kg): 2.6 +/− 0.5
- Histopathology score (0 to 5 Scale): Dilation (rat kidney [2]; 100 mg/kg): 3.2 +/− 0.4
- Histopathology score (0 to 5 Scale): Inflammation (rat kidney [2]; 100 mg/kg): 3 +/− 0
- Histopathology score (0 to 5 Scale): Regeneration (rat kidney [2]; 100 mg/kg): 4 +/− 0
- Histopathology score (0 to 5 Scale): Casts (rat kidney [2]; 300 mg/kg): 0 +/− 0
- Histopathology score (0 to 5 Scale): Dilation (rat kidney [2]; 300 mg/kg): 0 +/− 0
- Histopathology score (0 to 5 Scale): Inflammation (rat kidney [2]; 300 mg/kg): 0 +/− 0
- Histopathology score (0 to 5 Scale): Regeneration (rat kidney [2]; 300 mg/kg): 0 +/− 0

- ALB, day 6 ([3]; 10 mg/kg): 4.0 g/dL
- ALP, day 6 ([3]; 10 mg/kg): 670 U/L
- AMYL, day 6 ([3]; 10 mg/kg): 1719 U/L
- BUN, day 6 ([3]; 10 mg/kg): 16 mg/dL
- CHOL, day 6 ([3]; 10 mg/kg): 78 mg/dL
- Cre, day 6 ([3]; 10 mg/kg): 0.8 mg/dL
- GLOB, day 6 ([3]; 10 mg/kg): 1.8 g/dL
- GLU, day 6 ([3]; 10 mg/kg): 154 mg/dL
- T-PRO, day 6 ([3]; 10 mg/kg): 5.9 g/dL
- TBIL ([3]; 10 mg/kg): 0.1
- TBIL, day 6 ([3]; 10 mg/kg): 0.1 mg/dL
- ALB, day 6 ([3]; 30 mg/kg): 4.0 g/dL
- ALP, day 6 ([3]; 30 mg/kg): 583 U/L
- AMYL, day 6 ([3]; 30 mg/kg): 1658 U/L
- BUN, day 6 ([3]; 30 mg/kg): 15 mg/dL
- CA ([3]; 30 mg/kg): 11.2
- CHOL, day 6 ([3]; 30 mg/kg): 81 mg/dL
- Cre, day 6 ([3]; 30 mg/kg): 0.7 mg/dL
- GLOB, day 6 ([3]; 30 mg/kg): 1.8 g/dL
- GLU, day 6 ([3]; 30 mg/kg): 155 mg/dL
- Organ weights Heart ([3]; 30 mg/kg): 1.44
- Organ weights Kidney Rt. ([3]; 30 mg/kg): 2.1
- Organ weights Liver ([3]; 30 mg/kg): 11.3
- Organ weights Lung ([3]; 30 mg/kg): 2.96
- Organ weights Pancreas ([3]; 30 mg/kg): 0.85
- Organ weights testes ([3]; 30 mg/kg): 3.45
- T-PRO, day 6 ([3]; 30 mg/kg): 5.8 g/dL
- TBIL ([3]; 30 mg/kg): 0.1
- TBIL, day 6 ([3]; 30 mg/kg): 0.1 mg/dL
- ALB, day 6 ([3]; 100 mg/kg): 4.0 g/dL
- ALP, day 6 ([3]; 100 mg/kg): 596 U/L
- AMYL, day 6 ([3]; 100 mg/kg): 1560 U/L
- BUN, day 6 ([3]; 100 mg/kg): 19 mg/dL
- CA, day 6 ([3]; 100 mg/kg): 10.8 mg/dL
- CHOL, day 6 ([3]; 100 mg/kg): 82 mg/dL
- Cre ([3]; 100 mg/kg): 0.8
- Cre, day 6 ([3]; 100 mg/kg): 0.7 mg/dL
- GLOB, day 6 ([3]; 100 mg/kg): 1.6 g/dL
- GLU, day 6 ([3]; 100 mg/kg): 148 mg/dL
- T-PRO, day 6 ([3]; 100 mg/kg): 5.6 g/dL
- TBIL ([3]; 100 mg/kg): 0.1
- TBIL, day 6 ([3]; 100 mg/kg): 0.1 mg/dL
SMILES: NC[C@H]1O[C@H](O[C@H]2[C@H](O)[C@@H](O[C@H]3O[C@H](CO)[C@@H](O)[C@H](N)[C@H]3O)[C@H](N)C[C@@H]2N)[C@H](N)C[C@@H]1O [Tobramycin, tobramycin]
- Histopathology score (0 to 5 Scale): Casts (rat kidney [2]; 10 mg/kg): 0 +/− 0
- Histopathology score (0 to 5 Scale): Dilation (rat kidney [2]; 10 mg/kg): 0.4 +/− 0.9
- Histopathology score (0 to 5 Scale): Inflammation (rat kidney [2]; 10 mg/kg): 0.4 +/− 0.9
- Histopathology score (0 to 5 Scale): Regeneration (rat kidney [2]; 10 mg/kg): 1 +/− 1.4
- Histopathology score (0 to 5 Scale): Casts (rat kidney [2]; 30 mg/kg): 0.8 +/− 0.4
- Histopathology score (0 to 5 Scale): Dilation (rat kidney [2]; 30 mg/kg): 1.6 +/− 1.1
- Histopathology score (0 to 5 Scale): Inflammation (rat kidney [2]; 30 mg/kg): 1.8 +/− 0.8
- Histopathology score (0 to 5 Scale): Regeneration (rat kidney [2]; 30 mg/kg): 2.2 +/− 0.8
- Histopathology score (0 to 5 Scale): Casts (rat kidney [2]; 100 mg/kg): 1.8 +/− 0.8
- Histopathology score (0 to 5 Scale): Dilation (rat kidney [2]; 100 mg/kg): 1.6 +/− 1.1
- Histopathology score (0 to 5 Scale): Inflammation (rat kidney [2]; 100 mg/kg): 2.4 +/− 0.9
- Histopathology score (0 to 5 Scale): Regeneration (rat kidney [2]; 100 mg/kg): 3 +/− 0.7
- ALT ([3]; 10 mg/kg): 41
- ALT, day 6 ([3]; 10 mg/kg): 29 U/L
- AST, day 6 ([3]; 10 mg/kg): 65 U/L
- Body weight Day 1 ([3]; 10 mg/kg): 243 g
- Body weight Day 2 ([3]; 10 mg/kg): 256 g
- Body weight Day 3 ([3]; 10 mg/kg): 264 g
- Body weight Day 4 ([3]; 10 mg/kg): 277 g
- Body weight Day 5 ([3]; 10 mg/kg): 271 g
- Body weight Day 6 ([3]; 10 mg/kg): 291 g
- Body weight Day 7 ([3]; 10 mg/kg): 299 g
- Body weight Day 8 ([3]; 10 mg/kg): 307 g
- Body weight Day 9 ([3]; 10 mg/kg): 315 g
- Body weight Day 10 ([3]; 10 mg/kg): 327 g
- Body weight Day 11 ([3]; 10 mg/kg): 333 g
- Body weight Day 12 ([3]; 10 mg/kg): 330 g
- Body weight Day 13 ([3]; 10 mg/kg): 347 g
- Body weight Day 14 ([3]; 10 mg/kg): 352 g
- ALT, day 6 ([3]; 30 mg/kg): 32 U/L
- AST, day 6 ([3]; 30 mg/kg): 65 U/L
- Body weight Day 1 ([3]; 30 mg/kg): 250 g
- Body weight Day 2 ([3]; 30 mg/kg): 256 g
- Body weight Day 3 ([3]; 30 mg/kg): 264 g
- Body weight Day 4 ([3]; 30 mg/kg): 270 g
- Body weight Day 5 ([3]; 30 mg/kg): 280 g
- Body weight Day 6 ([3]; 30 mg/kg): 288 g
- Body weight Day 7 ([3]; 30 mg/kg): 294 g
- Body weight Day 8 ([3]; 30 mg/kg): 295 g
- Body weight Day 9 ([3]; 30 mg/kg): 307 g
- Body weight Day 10 ([3]; 30 mg/kg): 318 g
- Body weight Day 11 ([3]; 30 mg/kg): 323 g
- Body weight Day 12 ([3]; 30 mg/kg): 321 g
- Body weight Day 13 ([3]; 30 mg/kg): 321 g
- Body weight Day 14 ([3]; 30 mg/kg): 330 g
- ALT, day 6 ([3]; 100 mg/kg): 36 U/L
- AST, day 6 ([3]; 100 mg/kg): 75 U/L
- Body weight Day 1 ([3]; 100 mg/kg): 246 g
- Body weight Day 2 ([3]; 100 mg/kg): 251 g
- Body weight Day 3 ([3]; 100 mg/kg): 259 g
- Body weight Day 4 ([3]; 100 mg/kg): 264 g
- Body weight Day 5 ([3]; 100 mg/kg): 268 g
- Body weight Day 6 ([3]; 100 mg/kg): 277 g
- Body weight Day 7 ([3]; 100 mg/kg): 281 g
- Body weight Day 8 ([3]; 100 mg/kg): 287 g
- Body weight Day 9 ([3]; 100 mg/kg): 280 g
- Body weight Day 10 ([3]; 100 mg/kg): 293 g
- Body weight Day 11 ([3]; 100 mg/kg): 296 g
- Body weight Day 12 ([3]; 100 mg/kg): 283 g
- Body weight Day 13 ([3]; 100 mg/kg): 296 g
- Body weight Day 14 ([3]; 100 mg/kg): 299 g
